Values after ≈ are worked out from the molar mass of the structure shown. Active and inactive are the calls of the source. The rule behind the calls is not given here.
Assays:
Polycomb protein EED [1] = target: T1, Polycomb protein EED (Homo sapiens, UniProt O75530)
Description: Inhibition of recombinant N-terminal GST-tagged EED (76 to 441 residues) (unknown origin) expressed in Escherichia coli BL21-CodonPlus(DE3)-RIL assessed as reduction in SAH production using H3[21-44,K27Me0) peptide as substrate measured after 20 mins by LC/MS/MS method

Polycomb protein EED [2] = target: T1, Polycomb protein EED; experiment: Inhibition of recombinant N-terminal GST-tagged EED (76 to 441 residues) (unknown origin) expressed in Escherichia coli BL21-CodonPlus(DE3)-RIL incubated for 20 mins using EED-H3K27me3 peptide based AlphaScreen competition binding assay
Polycomb protein EED [3] = target: T1, Polycomb protein EED; experiment: Inhibition of EED in human G401 cells assessed as reduction in global H3K27me3 level after 48 hrs by ELISA; type: cell-based
[4] = Protein binding in mouse plasma assessed as unbound fraction; type: ADME, cell-free
Mus musculus [5] = experiment: Dose normalized unbound AUC in CD-1 mouse at 2 mg/kg, po by LC-MS/MS analysis; type: ADME, organism-based; conditions: in vivo
[6] = (§1) Oral bioavailability in CD-1 mouse at 2 mg/kg by LC-MS/MS analysis; type: ADME, organism-based; conditions: CD-1, mouse, in vivo
Mus musculus [7] = experiment: Dose normalized AUC in CD-1 mouse at 1 mg/kg, iv by LC-MS/MS analysis; type: ADME, organism-based; conditions: in vivo
Mus musculus [8] = experiment: Dose normalized AUC in CD-1 mouse at 2 mg/kg, po by LC-MS/MS analysis; type: ADME, organism-based; conditions: in vivo
[9] = Hepatic extraction ratio in mouse liver microsomes; type: ADME, microsome; conditions: read-out: ERH
KARPAS-422 [10] = experiment: Antiproliferative activity against human KARPAS422 cells harboring monoallelic Y641N EZH2 mutation assessed as reduction in cell viability measured every 3 to 4 days up to 14 days by Beckman Coulter-based method; type: functional
in vivo [11] = conditions: CD-1, mouse, plasma, iv, 1 mg/kg
in vivo [12] = conditions: CD-1, mouse, iv, 1 mg/kg
Description: Volume of distribution at steady state in CD-1 mouse at 1 mg/kg, iv or 2 mg/kg, po by LC-MS/MS analysis

in vivo [13] = conditions: CD-1, mouse
Canis familiaris = experiment: Dose normalized unbound AUC in Beagle dog at 2 mg/kg, po by LC-MS/MS analysis; type: ADME, organism-based, Canis lupus familiaris; conditions: in vivo
[14] = Solubility of the crystalline form of compound at pH 3; type: physicochemical
[15] = Solubility of the crystalline form of compound in simulated gastric fluid; type: physicochemical
[16] = Solubility of the crystalline form of compound in fasted state simulated intestinal fluid; type: physicochemical
Mus musculus [17] = experiment: as §1; type: ADME, organism-based; conditions: mouse, in vivo
[18] = Total clearance in Sprague-Dawley rat at 1 mg/kg, iv or 2 mg/kg, po by LC-MS/MS analysis; type: ADME, organism-based; conditions: in vivo
Mus musculus [19] = experiment: Antitumor activity against human KARPAS422 cells xenografted in Balb/C nude mouse assessed as reduction in tumor volume at 1.5 to 40 mg/kg, po BID for 2 weeks; type: functional, organism-based
Mus musculus [20] = experiment: Toxicity in CD-1 mouse assessed as effect on body weight at 300 mg/kg, po BID after 14 day; type: organism-based; conditions: in vivo, 336 h
[21] = Solubility of the crystalline form of compound at pH 7; type: physicochemical
[22] = Oral bioavailability in Sprague-Dawley rat at 2 mg/kg by LC-MS/MS analysis; type: ADME, organism-based; conditions: in vivo
Rattus norvegicus = experiment: Dose normalized unbound AUC in Sprague-Dawley rat at 2 mg/kg, po by LC-MS/MS analysis; type: ADME, organism-based; conditions: in vivo
KARPAS-422 [23] = experiment: Antitumor activity against human KARPAS422 cells xenografted in Balb/C nude mouse assessed as tumor regression at 300 mg/kg, po BID for 34 days; type: functional, organism-based
[24] = Permeability across apical to basolateral side of human Caco2 cells; type: ADME, cell-based; conditions: Caco-2, read-out: permeability
[25] = Protein binding in human plasma assessed as unbound fraction; type: ADME, cell-free
[26] = Equilibrium solubility of the compound by high-throughput assay; type: physicochemical
[27] = Plasma protein binding in Beagle dog assessed as unbound fraction; type: ADME, cell-free, Canis lupus familiaris
[28] = Oral bioavailability in Beagle dog at 2 mg/kg by LC-MS/MS analysis; type: ADME, organism-based, Canis lupus familiaris; conditions: in vivo
[29] = Total clearance in Beagle dog at 1 mg/kg, iv or 2 mg/kg, po by LC-MS/MS analysis; type: ADME, organism-based, Canis lupus familiaris; conditions: in vivo
Mus musculus [30] = experiment: In-vivo inhibition of EED in Balb/C nude mouse xenografted with human KARPAS422 cells assessed as decrease in global H3K27me3 level at 1.5 to 40 mg/kg, po BID for 21 days; type: functional, organism-based
[31] = Protein binding in Sprague-Dawley rat plasma assessed as unbound fraction; type: ADME, cell-free

T1 sequence (O75530 whole entry, the tested form may be a part): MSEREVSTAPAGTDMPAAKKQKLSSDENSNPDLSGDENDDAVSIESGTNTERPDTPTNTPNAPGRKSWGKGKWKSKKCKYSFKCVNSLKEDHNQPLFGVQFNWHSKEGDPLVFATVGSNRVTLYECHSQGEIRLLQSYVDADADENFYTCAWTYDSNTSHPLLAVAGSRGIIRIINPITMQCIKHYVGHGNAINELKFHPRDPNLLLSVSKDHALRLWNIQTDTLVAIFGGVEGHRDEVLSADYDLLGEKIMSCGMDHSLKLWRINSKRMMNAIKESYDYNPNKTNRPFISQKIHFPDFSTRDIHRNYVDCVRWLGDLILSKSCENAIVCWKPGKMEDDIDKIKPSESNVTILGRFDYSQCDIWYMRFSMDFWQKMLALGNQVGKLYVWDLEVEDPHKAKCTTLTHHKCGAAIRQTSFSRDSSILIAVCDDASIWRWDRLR

CN(C)Cc1ccc(-c2cc(C#N)c(NCc3ccccc3)n3cnnc23)cc1
IC50 (Polycomb protein EED [1]): 21.8 µM

N#Cc1c2c(c3nncn3c1NCc1ccco1)CN(Cc1ccccc1)CC2
IC50 (Polycomb protein EED [2]): 0.62 µM | IC50 (Polycomb protein EED [1]): 4.03 µM | IC50 (Polycomb protein EED [3]): 3.28 µM

c1ccc(-c2ccc(NCc3ccco3)n3cncc23)cc1
IC50 (Polycomb protein EED [1]): 14.8 µM

Cc1ccsc1CNc1c(C#N)cc(-c2ccc(CN(C)C)cc2)c2nncn12
IC50 (Polycomb protein EED [1]): 21.8 µM

CN(C)Cc1ccc(-c2cc(C#N)c(NCc3ccco3)n3cnnc23)cc1
IC50 (Polycomb protein EED [1]): 0.009 to 0.013 µM

CN(C)Cc1ccc(-c2cnc(NCc3ccno3)n3cnnc23)cc1
IC50 (Polycomb protein EED [1]): 0.13 µM

N#Cc1cc(-c2ccccc2)c2nncn2c1NCc1ccco1
IC50 (Polycomb protein EED [1]): 0.062 µM

CN(C)Cc1ccc(-c2cc(C#N)c(NCc3ccc(F)s3)n3cnnc23)cc1
IC50 (Polycomb protein EED [1]): 0.51 µM

N#Cc1ccc2nncn2c1NCc1ccco1
IC50 (Polycomb protein EED [1]): 1 µM

Cc1ccc(CNc2ncc(-c3ccc(CN(C)C)cc3)c3nncn23)s1
IC50 (Polycomb protein EED [1]): 12.4 µM

CN(C)Cc1ccc(-c2cnc(NCc3cnco3)n3cnnc23)cc1
IC50 (Polycomb protein EED [1]): 0.29 µM

CN(C)Cc1ccc(-c2cnc(NCc3ccco3)n3cnnc23)cc1
IC50 (Polycomb protein EED [1]): 0.013 µM

CN(C)Cc1ccc(-c2cc(C#N)c(NCc3ccoc3)n3cnnc23)cc1
IC50 (Polycomb protein EED [1]): 0.009 µM

CN(C)Cc1ccc(-c2cc(C#N)c(NCc3cccs3)n3cnnc23)cc1
IC50 (Polycomb protein EED [1]): 0.02 µM

CN(C)Cc1ccc(-c2cnc(NCc3ccccc3)n3cnnc23)cc1
IC50 (Polycomb protein EED [1]): 0.049 µM

c1coc(CNc2ncc(-c3ccc(CN4CCCC4)cc3)c3nncn23)c1
fraction unbound [4]: 0.381 | fAUC/dose (Mus musculus [5]): 202 nM·h | bioavailability [6]: 71% | AUC/dose (Mus musculus [7]): 765 nM·h | IC50 (Polycomb protein EED [1]): 0.007 µM | AUC/dose (Mus musculus [8]): 531 nM·h | hepatic extraction ratio [9]: 0.52 | IC50 (KARPAS-422 [10]): 0.088 µM | IC50 (Polycomb protein EED [3]): 0.032 µM

CN(C)Cc1ccc(-c2cc(C#N)c(NCc3cnco3)n3cnnc23)cc1
IC50 (Polycomb protein EED [1]): 0.15 µM

CN(C)Cc1ccc(-c2cnc(NCc3sccc3Cl)n3cnnc23)cc1
IC50 (Polycomb protein EED [1]): 0.053 µM

Cc1ccc(CNc2c(C#N)cc(-c3ccc(CN(C)C)cc3)c3nncn23)s1
IC50 (Polycomb protein EED [1]): 2.22 µM

CN(C)Cc1ccc(-c2cc(C#N)c(NCc3ccno3)n3cnnc23)cc1
IC50 (Polycomb protein EED [1]): 0.069 µM

CN(C)Cc1ccc(-c2cnc(NCc3cccs3)n3cnnc23)cc1
IC50 (Polycomb protein EED [1]): 0.093 µM

N#Cc1cc(-c2ccccc2F)c2nncn2c1NCc1ccco1
fraction unbound [4]: 0.0281 | fAUC/dose (Mus musculus [5]): 20.1 nM·h | bioavailability [6]: 42% | AUC/dose (Mus musculus [7]): 1751 nM·h | IC50 (Polycomb protein EED [1]): 0.03 µM | AUC/dose (Mus musculus [8]): 714 nM·h | hepatic extraction ratio [9]: 0.8 | IC50 (KARPAS-422 [10]): 0.076 µM | IC50 (Polycomb protein EED [3]): 0.21 µM

COc1ccccc1CNc1c(C#N)cc(-c2ccc(CN(C)C)cc2)c2nncn12
IC50 (Polycomb protein EED [1]): 14.9 µM

N#Cc1c2c(c3nncn3c1Cl)CN(Cc1ccccc1)CC2
IC50 (Polycomb protein EED [1]): > 100 µM

Cc1ccsc1CNc1ncc(-c2ccc(CN(C)C)cc2)c2nncn12
IC50 (Polycomb protein EED [1]): 0.049 µM

CN(C)Cc1ccc(-c2cnc(NCc3ccoc3)n3cnnc23)cc1
IC50 (Polycomb protein EED [1]): 0.019 µM

CN(C)Cc1ccc(-c2cnc(NCc3ccc(F)s3)n3cnnc23)cc1
IC50 (Polycomb protein EED [1]): 0.15 µM

CN(C)Cc1ccc(-c2cc(C#N)c(NCc3sccc3Cl)n3cnnc23)cc1
IC50 (Polycomb protein EED [1]): 2.34 µM

c1ccc(-c2cnc(NCc3ccco3)n3cnnc23)cc1
IC50 (Polycomb protein EED [1]): 0.052 µM

CN(C)Cc1ccc(-c2cc(C#N)c(NCc3ccon3)n3cnnc23)cc1
IC50 (Polycomb protein EED [1]): 0.069 µM

CCN(c1cc(-c2ccc(CN3CCOCC3)cc2)cc(C(=O)NCc2c(C)cc(C)[nH]c2=O)c1C)C1CCOCC1 [TAZEMETOSTAT]
fraction unbound [4]: 0.014 | fAUC/dose (Mus musculus [5]): 4 nM·h | clearance (in vivo [11]): 22 mL/min/kg | bioavailability [6]: 20% | AUC/dose (Mus musculus [7]): 1303 nM·h | AUC/dose (Mus musculus [8]): 254 nM·h | Vd (in vivo [12]): 1.2 L/kg | IC50 (KARPAS-422 [10]): 0.012 µM | half-life (in vivo [13]): 1.6 h

CN(C)Cc1ccc(-c2cnc(NCc3ccon3)n3cnnc23)cc1
IC50 (Polycomb protein EED [1]): 0.77 µM

CS(=O)(=O)c1ccc(-c2cnc(NCc3ccco3)n3cnnc23)cc1
fraction unbound [4]: 0.144 to 0.15 | fAUC/dose (Canis familiaris): 1907 nM·h | fAUC/dose (Mus musculus [5]): 813 nM·h | solubility [14]: 26 µg/mL (≈ 70.4 µM) | solubility [15]: 55 µg/mL (≈ 149 µM) | solubility thermodynamic [16]: 35 µg/mL (≈ 94.7 µM) | clearance (in vivo [11]): 8 mL/min/kg | F (Mus musculus [17]): 109% | AUC/dose (Mus musculus [7]): 534 nM·h | clearance [18]: 14 mL/min/kg | Activity (Mus musculus [19]): Active | Activity (Mus musculus [20]): Non-Toxic | solubility [21]: 25 µg/mL (≈ 67.7 µM) | bioavailability [22]: 60% | fAUC/dose (Rattus norvegicus): 1871 nM·h | IC50 (Polycomb protein EED [1]): 0.022 µM | Activity (KARPAS-422 [23]): Active | Papp A→B [24]: 3 ×10⁻⁶ cm/s | fraction unbound [25]: 0.13 | solubility thermodynamic [26]: 12 µM (≈ 4.43 µg/mL) | fraction unbound [27]: 0.24 | AUC/dose (Mus musculus [8]): 5648 nM·h | Vd (in vivo [12]): 0.8 L/kg | IC50 (KARPAS-422 [10]): 0.08 µM | bioavailability [28]: 68% | half-life (in vivo [13]): 2.2 h | clearance [29]: 16 mL/min/kg | Activity (Mus musculus [30]): Dose-dependent effect | fraction unbound [31]: 0.08 | IC50 (Polycomb protein EED [3]): 0.22 µM

COc1ccccc1CNc1ncc(-c2ccc(CN(C)C)cc2)c2nncn12
IC50 (Polycomb protein EED [1]): 0.094 µM
